Assays:
[1] = set-up: method as in ref 21 = [21]; 21 Nuñez-Selles AJ . Antioxidant therapy: myth or reality? J Braz Chem Soc . 2005; 16 : 699 – 710 .; settings: cited from earlier work
[2] = biological target: Collagenase from Clostridium histolyticum; assay: Spectrophotometric collagenase assay with FALGPA as substrate; assay type: biochemical
Procedure: A spectrophotometric collagenase assay was performed as previously described, with N-[3- (2-Furyl) acryloyl]- Leu- Gly- Pro-Ala (FALGPA) as the substrate. […] The reaction mixtures were preincubated with mangiferin solutions for 15 minutes at room temperature. The addition of FALGPA started the reaction. Changes in product formation were recorded every 20 seconds for 20 minutes in the absorbance λ = 335 nm with the use of the Epoch (BioTek System) spectrophotometer in 96-well plates (BIOCOM SYSTEMS). Oleanolic acid was used as a control. The kinetic parameters Vo, Km and Vmax were calculated according to Michaelis-Menten and Lineweaver-Burk plots and analyzed in the GraphPad prism program and Excel.
As stated by the data supplier: 1U of collagenase hydrolyses […] FALGPA/min at pH 7.5 and 25°C, in the presence of calcium ions.

rats = settings: 2 g/kg; cited from earlier work
mice = settings: 2 g/kg; cited from earlier work
[3] = tested on: human acute myeloid leukemia cell line HL-60; set-up: method as in PMID 21547680; settings: cited from earlier work
[4] = assay type: in vitro ADME; settings: human, 25 μg/ml
Procedure: The studies were performed using human cadaver full skin (thickness of 0.75 mm) obtained from the region of the thorax of 40–60 years old donors. The study was reviewed and approved by the Independent Bioethics Commission for Research of the Medical University of Gdansk (number NKBBN/120-41/2014). Before the experiment, the skin was stored frozen at -20 °C. The preparations were applied as an infinite dose (0.5 ml mangiferin solution at concentration of 25 μg/ml) on the surface of the skin placed in the flow-through Teflon® diffusion chamber (Crown Glass, USA), and left for 24 h. The diffusion area of the skin was 0.65 cm^2. The donor compartment of the chamber remained occluded, and the system was maintained at the temperature 37°C ± 0.5°C. Saline solution, 20 ml, preserved with 0.005% sodium azide (Fluka, Buchs, Switzerland) was recirculated beneath the skin with a constant rate of 10 ml/h. Acceptor fluid ensured the sink condition. After the penetrants were removed from the skin, the stratum corneum was separated by tape-stripping method, using 30 fragments of an adhesive tape (3M Medica Pharma, St. Paul, MN, USA). The following parameters were employed: pressure about 1 kg/cm^2 (applied by stamp), 2 s duration of pressure, and a rapid removal rate at an angle of 45^o. The skin layers were isolated by the heat separation technique. […]

[5] = tested on: human cervix adenocarcinoma cell line (HeLa); set-up: method as in PMID 24633329; settings: cited from earlier work
[6] = set-up: method as in ref 18 = [18]; 18 Acosta J , Sevilla I , Salomón S , Nuevas L , Romero A , Amaro D . Determination of mangiferin solubility in solvents used in the biopharmaceutical industry . Pharm Pharmacogn Res . 2016; 4 ( 2 ):; settings: cited from earlier work
[7] = biological target: porcine pancreatic elastase (Sus scrofa, UniProt P00772); assay: Spectrophotometric elastase assay with SANA as substrate; assay type: biochemical
Chain of porcine pancreatic elastase (P00772 27-266): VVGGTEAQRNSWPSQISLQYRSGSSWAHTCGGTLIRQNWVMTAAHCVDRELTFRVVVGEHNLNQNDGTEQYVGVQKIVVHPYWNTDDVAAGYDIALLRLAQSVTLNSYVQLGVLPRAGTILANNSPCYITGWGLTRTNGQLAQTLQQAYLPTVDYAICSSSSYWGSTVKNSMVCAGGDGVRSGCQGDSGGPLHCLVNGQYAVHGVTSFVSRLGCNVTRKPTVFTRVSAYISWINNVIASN
Procedure: A spectrophotometric elastase assay was performed as previously described [25], with N-Succ-(-Ala)3-p-nitroanilide (SANA) as the substrate. […] The addition of SANA started the reaction. Changes in product formation: p-nitroaniline was recorded every 20 seconds for 20 minutes in the absorbance λ = 410 nm with the use of the Epoch (BioTek System) spectrophotometer in 96-well plates (BIOCOM SYSTEMS). The oleanolic acid was used as a control [26]. Kinetic parameters Vo, Km and Vmax were calculated according to Michaelis-Menten and Lineweaver-Burk plots and analyzed in the GraphPad prism program and Excel.
As stated by the data supplier: 1U elastase hydrolyses 1 μM SANA/min at pH 8 and 25°C. The molar absorption coefficient of p-nitroaniline is 9800 M^–1 cm^–1.

## O=c1c2cc(O)c(O)cc2oc2cc(O)c([C@@H]3O[C@H](CO)[C@@H](O)[C@H](O)[C@H]3O)c(O)c12 [mangiferin, 2-C-β-D-glucopyranosyl-1,3,6,7-tetrahydroxyxanthone]
[1]
  log P: 2.73
[2]; FALGPA 0.8 mM, pH 7.5, 15 min preincubation, read-out: concentration leading to a 50% loss of collagenase activity (IC50)
  IC50: 254 ± 7.56 µM
[2]; FALGPA substrate
  concentrations that inactivated collagenase almost completely: above 500 μM
[2]; Lineweaver-Burk plots
  type of collagenase inhibition: noncompetitive
[2]; activity vs enzyme concentration plots
  reversibility of collagenase inhibition: reversible
[2]; vs reference oleanolic acid
  potency on collagenase relative to oleanolic acid (fold lower): 4.9 fold
rats
  dermal acute toxicity: did not show toxic effects
mice
  dermal acute toxicity: did not show toxic effects
[3]
  apoptosis in HL-60 cells: induce apoptosis
[4]
  amount permeated through the skin from ethanol solution relative to water solution: about 2 fold
  concentration in the acceptor fluid after 24 hours relative to after 2 hours: about 2 fold
[5]
  effect on apoptotic effects of hesperidin in HeLa cells: enhanced apoptotic effects of hesperidin
[6]; ethanol
  solubility in ethanol: slightly soluble
[6]; some nonpolar solvents (e.g. n-hexane, diethyl ether)
  solubility in nonpolar solvents: practically insoluble
[6]; water
  solubility in water: sparingly soluble
[7]; Lineweaver-Burk plots, 0, 59, 118 and 177 μM
  type of elastase inhibition: noncompetitive
[7]; SANA 0.8 mM, pH 8, 15 min preincubation, read-out: concentration leading to a 50% loss of elastase activity (IC50)
  IC50: 140 ± 9.34 µM
[7]; SANA substrate
  concentrations that inactivated elastase almost completely: above 473 μM
[7]; activity vs enzyme concentration plots, 0, 59, 118 and 177 μM
  reversibility of elastase inhibition: reversible
[7]; vs reference oleanolic acid
  potency on elastase relative to oleanolic acid (fold lower): 4.2 fold

Reference: article PMC5531637, “The effect of mangiferin on skin: Penetration, permeation and inhibition of ECM enzymes” (PLoS ONE, 2017)
